Two compounds from PubChem BioAssay (NCI) can be followed below.

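Compound exposure: 48 hours, 5 concentrations, 96-well plates. At the GI50, growth is halved. Definition used: TGI = concentration required for complete inhibition of growth.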

Test systems include A498 renal; CCRF-CEM leukemia; IGROV1 ovarian; MALME-3M melanoma; NCI-H23 lung; NCI/ADR-RES ovarian; SK-MEL-28 melanoma; SNB-19 CNS; TK-10 renal; U251 CNS.
Test in all cases: NCI anticancer screen, dose series, 48 h

Turning to `O=C(Nc1ccc(/C=C/c2ccc(NC(=O)c3cc(S(=O)(=O)O)c4cccnc4c3O)cc2S(=O)(=O)O)c(S(=O)(=O)O)c1)c1cc(S(=O)(=O)O)c2cccnc2c1O`, the GI50 in the experiment on A498 renal was 46.6 µM; with CCRF-CEM leukemia, 3.15 µM; in the experiment on IGROV1 ovarian, 18.5 µM; in the experiment on MALME-3M melanoma it was 34.4 µM; with NCI-H23 lung it was 6.65 µM; in the experiment on NCI/ADR-RES ovarian, greater than 56.2 µM. The GI50 with SK-MEL-28 melanoma is 25.5 µM; with SNB-19 CNS, 12.2 µM; in the experiment on TK-10 renal it was 48.4 µM; in the experiment on U251 CNS, 3.32 µM. For the same compound, the TGI in the experiment on A498 renal was greater than 64.4 µM; in the experiment on CCRF-CEM leukemia it was greater than 29.1 µM; in the experiment with IGROV1 ovarian it was greater than 60.2 µM; in the experiment with MALME-3M melanoma it was greater than 62.6 µM; in the experiment with NCI-H23 lung it was greater than 42 µM; in the experiment on NCI/ADR-RES ovarian it was greater than 100 µM. The TGI is greater than 62.7 µM in the experiment with SK-MEL-28 melanoma, greater than 100 µM in the experiment with SNB-19 CNS, greater than 71.4 µM in the experiment with TK-10 renal and greater than 22.4 µM in the experiment on U251 CNS.

For `COc1cc2c(cc1Nc1nc(Nc3cccc(F)c3C(N)=O)c3cc[nH]c3n1)N(C(=O)CN1CCN(C(C)C)CC1)CC2`, the GI50 with A498 renal is 2.43 µM; in the experiment with CCRF-CEM leukemia, 5.35 µM; with IGROV1 ovarian, 4.5 µM; in the experiment on MALME-3M melanoma it was 3.17 µM; in the experiment with NCI-H23 lung it was 3.36 µM; in the experiment with NCI/ADR-RES ovarian, 5.42 µM. The GI50 with SK-MEL-28 melanoma is 3.7 µM; with SNB-19 CNS, 4.11 µM; in the experiment on TK-10 renal it was 2.97 µM; with U251 CNS, 3.68 µM. The TGI stood at 3.68 µM in the experiment with A498 renal; 14.2 µM in the experiment on CCRF-CEM leukemia; 10.2 µM in the experiment on IGROV1 ovarian; 7.06 µM in the experiment on MALME-3M melanoma; 7.05 µM in the experiment on NCI-H23 lung; 13.5 µM with NCI/ADR-RES ovarian. The TGI in the experiment with SK-MEL-28 melanoma stood at 7.02 µM; in the experiment with SNB-19 CNS, 8.27 µM; in the experiment on TK-10 renal it was 7.55 µM; with U251 CNS, 7.09 µM.
